Measured values taken from US20220381783A1, “BIOMARKER” (Oxford University Innovation Limited, priority 2019, published 2022).

How the values were obtained:
HeLa cells = assay: Puromycin dose required to kill wild-type cells; assay type: cell-based, Human
Procedure: (§1) To generate CRISPR-Cas9 TEX264 knockout cells, two plasmids —a CRISPR/Cas9 KO plasmid containing guide RNA targeting TEX264 (sc-417333), and a homology directed repair plasmid containing a puromycin resistance cassette (sc-417333-HDR)—were purchased from Santa Cruz. 2.5 μg of each plasmid was transfected into early-passage HEK293, HeLa, and U2OS cells using Fugene HD (Promega). After 72 hours, media supplemented with puromycin was added to the cells. The puromycin dose required to kill wild-type cells was determined to be: 1.25 μg/ml for HEK293 cells, 0.6 μg/ml for HeLa cells, and 1 μg/ml for U2OS cells. After 72 hours, the puromycin-containing media was removed and cells were sorted using a cell sorter into single-cell populations on a 96-well plate. TEX264 expression was analysed by immunoblotting. Multiple clones of each cell line showing loss of all detectable TEX264 were selected for subsequent analysis.

U2OS cells = assay: Puromycin dose required to kill wild-type cells; assay type: cell-based, Human
Procedure: as §1

HEK293 cells = assay: Puromycin dose required to kill wild-type cells; assay type: cell-based, Human
Procedure: as §1

[1] = system: metastatic colorectal cancer; conditions: patients with metastatic colorectal cancer; cited from earlier work
SUMOylated TOP1 = assay: Denaturing immunoprecipitation of YFP-TOP1, SUMO immunoblot; assay type: cell-based, human; conditions: HEK293 cells, short treatment with a low dose (25 nM, 1 hour)
Procedure: FIG. 9A, Immunoblot analysis of SUMO1 & SUMO2/3 after denaturing immunoprecipitation of YFP-TOP1 from HEK293 cells treated or not with CPT (25 nM) for 1 or 24 hours. […] Asterisks indicate SUMOylated TOP1.
(§2) Cells were lysed in IP lysis buffer (50 mM Tris, pH 7.4, 150 mM NaCl, 1 mM EDTA, 0.5% Triton X-100) or IP denaturing buffer (i.e. IP lysis buffer containing 1% SDS) supplemented with protease and phosphatase inhibitors and incubated on ice for 10 min. Denaturing IPs were quenched with Triton X-100 (to a final concentration of 1%). Chromatin was pelleted by centrifugation for 5 min at 1,000×g and then digested with Benzonase at room temperature in Benzonase buffer (2 mM MgCl2, 50 mM Tris, pH 7.4, 150 mM NaCl). Lysates were incubated with anti-FLAG M2 agarose (Sigma-Aldrich), Strep-Tactin Sepharose (IBA), or GFP-trap agarose (Chromotek) for 1-2 h on a rotator at 4° C., washed three times with IP wash buffer (150 mM NaCl, 50 mM Tris-HC1; 0.5 mM EDTA), and resuspended in 2× Laemmli buffer.

TOP1cc = biological target: T1, TOP1cc (Homo sapiens, UniProt P11387); assay: RADAR assay of TOP1cc accumulation; assay type: cell-based; conditions: HEK293 cells, 1 μM CPT for 1 hour, positive control
T1 construct: endogenous in cells; host or cells: HEK293
T1 sequence (P11387 2-765 limits assumed): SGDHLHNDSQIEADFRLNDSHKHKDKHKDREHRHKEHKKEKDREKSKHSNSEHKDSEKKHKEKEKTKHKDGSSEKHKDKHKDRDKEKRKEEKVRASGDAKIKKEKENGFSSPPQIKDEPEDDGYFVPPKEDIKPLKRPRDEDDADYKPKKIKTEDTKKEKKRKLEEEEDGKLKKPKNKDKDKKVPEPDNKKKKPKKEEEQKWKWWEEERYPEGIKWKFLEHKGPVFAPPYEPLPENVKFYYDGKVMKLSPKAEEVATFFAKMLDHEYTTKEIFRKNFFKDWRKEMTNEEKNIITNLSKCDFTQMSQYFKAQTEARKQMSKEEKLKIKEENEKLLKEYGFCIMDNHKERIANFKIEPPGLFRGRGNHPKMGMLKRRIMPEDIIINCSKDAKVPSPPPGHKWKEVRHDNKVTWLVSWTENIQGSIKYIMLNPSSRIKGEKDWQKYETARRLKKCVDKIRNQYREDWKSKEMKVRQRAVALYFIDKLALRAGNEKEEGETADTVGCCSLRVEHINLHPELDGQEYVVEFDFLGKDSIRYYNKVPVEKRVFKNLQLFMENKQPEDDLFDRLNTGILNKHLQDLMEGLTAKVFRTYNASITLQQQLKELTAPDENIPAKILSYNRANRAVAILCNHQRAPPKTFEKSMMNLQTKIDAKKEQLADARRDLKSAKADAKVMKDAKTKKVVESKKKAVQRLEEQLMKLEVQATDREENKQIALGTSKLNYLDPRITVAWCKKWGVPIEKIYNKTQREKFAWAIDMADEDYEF
Procedure: Treatment with 1 μM CPT for 1 hour was used as a positive control for TOP1cc induction. Double-stranded (ds)DNA is used as a loading control. […] FIG. 1C, Quantification of Figure 1A (error bars represent mean ±SEM; n=3; ***P<0.001, **P<0.01; Student's t-test).
Cells were grown to ˜70% confluency then lysed in M buffer (MB), containing 6 M guanidine thiocyanate, 10 mM Tris—HCl (pH 6.8), 20 mM EDTA, 4% Triton X-100, 1% N-lauroylsarcosine and 1% dithiothreitol. DNA was precipitated by adding 100% ethanol, then washed three times in wash buffer (20 mM Tris—HC1 pH 7.4, 150 mM NaCl and 50% ethanol), and solubilized in 8 mM NaOH. […] For TOP1ccs, samples were digested with Benzonase for 30 minutes at 37° C. and analysed by slot blot analysis on a Nitrocellulose membrane.
By lysing cells in chaotropic salts (6M guanidium isothiocyanate), detergents (4% Triton X-100 and 1% N-lauroylsarcosine), and a reducing agent (1% DTT), all molecular interactions, other than covalent interactions, are disrupted.

[2] = biological target: T2, interaction between TEX264 and TOP1 (Homo sapiens, UniProt P11387); assay: Co-immunoprecipitation of TEX264-FLAG with TOP1; assay type: cell-based; conditions: HEK293 cells
T2 construct: FLAG immunoprecipitates prepared from HEK293 cells transiently expressing TEX264WT-FLAG cDNA or EV; expressed in transfected cells; host or cells: HEK293, transiently transfected with pCDNA3.1 TEX264-FLAG
T2 sequence (P11387 2-765 limits assumed): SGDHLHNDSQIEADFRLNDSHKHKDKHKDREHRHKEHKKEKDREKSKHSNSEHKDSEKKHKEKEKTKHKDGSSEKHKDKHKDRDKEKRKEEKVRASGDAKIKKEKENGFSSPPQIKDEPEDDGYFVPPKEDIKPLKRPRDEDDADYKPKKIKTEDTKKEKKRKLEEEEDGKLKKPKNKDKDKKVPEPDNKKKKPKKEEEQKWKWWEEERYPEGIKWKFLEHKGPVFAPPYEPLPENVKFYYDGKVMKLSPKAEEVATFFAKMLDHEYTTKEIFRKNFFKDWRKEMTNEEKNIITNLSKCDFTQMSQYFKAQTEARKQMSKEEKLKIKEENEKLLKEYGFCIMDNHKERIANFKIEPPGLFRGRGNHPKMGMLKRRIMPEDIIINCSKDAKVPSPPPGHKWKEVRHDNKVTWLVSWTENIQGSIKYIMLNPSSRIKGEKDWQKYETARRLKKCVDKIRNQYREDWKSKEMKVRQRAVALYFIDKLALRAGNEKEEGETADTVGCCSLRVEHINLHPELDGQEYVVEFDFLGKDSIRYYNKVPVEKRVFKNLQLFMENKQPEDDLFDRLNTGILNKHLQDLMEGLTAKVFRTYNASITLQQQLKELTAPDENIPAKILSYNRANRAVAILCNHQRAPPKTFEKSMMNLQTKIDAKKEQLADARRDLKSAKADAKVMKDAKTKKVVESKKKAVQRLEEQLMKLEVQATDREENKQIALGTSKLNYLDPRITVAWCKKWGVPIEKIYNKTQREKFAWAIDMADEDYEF
Procedure: FIG. 2D, FLAG immunoprecipitates prepared from HEK293 cells transiently expressing TEX264WT-FLAG cDNA or EV, treated with CPT (25 nM) or DMSO for 1 hour. FIG. 2E, Immunoblots of anti-Strep-tag immunoprecipitates prepared from wild-type (WT) or ΔTEX264 HEK293 cells expressing p97-Strep-Myc.
FIG. 7G, Immunoblot analysis of TEX264-FLAG immunoprecipitates prepared from HEK293 cells treated with the indicated doses of CPT for 1 hour.
as §2

[3] = biological target: T3, TOP1 cleavage complexes purified from HEK293 cells by CsCl-gradient fractionation
T3 chain: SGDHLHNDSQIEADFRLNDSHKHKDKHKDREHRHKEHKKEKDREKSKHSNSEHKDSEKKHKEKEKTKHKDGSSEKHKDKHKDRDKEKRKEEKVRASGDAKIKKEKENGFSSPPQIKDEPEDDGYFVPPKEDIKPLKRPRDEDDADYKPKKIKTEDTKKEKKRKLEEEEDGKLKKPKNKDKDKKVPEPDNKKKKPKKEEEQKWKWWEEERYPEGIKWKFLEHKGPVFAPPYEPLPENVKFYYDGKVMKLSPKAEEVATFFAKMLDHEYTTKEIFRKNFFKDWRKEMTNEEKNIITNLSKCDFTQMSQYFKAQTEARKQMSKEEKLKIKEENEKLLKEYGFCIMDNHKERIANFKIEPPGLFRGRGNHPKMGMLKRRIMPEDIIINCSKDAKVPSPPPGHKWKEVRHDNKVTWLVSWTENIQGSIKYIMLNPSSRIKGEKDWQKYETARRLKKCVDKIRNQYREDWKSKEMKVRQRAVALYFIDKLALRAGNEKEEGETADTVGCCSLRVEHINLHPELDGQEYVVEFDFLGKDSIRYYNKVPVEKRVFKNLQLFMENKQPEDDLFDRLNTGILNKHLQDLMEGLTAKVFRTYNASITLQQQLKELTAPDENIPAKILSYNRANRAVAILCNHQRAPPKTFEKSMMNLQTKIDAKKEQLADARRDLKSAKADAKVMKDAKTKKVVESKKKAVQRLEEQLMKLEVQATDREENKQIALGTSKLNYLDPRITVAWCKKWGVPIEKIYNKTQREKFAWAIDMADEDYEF

[4] = biological target: T4, endogenous p97 of HEK293 cells (human, UniProt P55072 2-806); assay: anti-Strep-tag immunoprecipitation from HEK293 cells, immunoblot (FIG. 10c)
T4 construct: Detected in immunoprecipitates by mass spectrometry or immunoblot; also called AAA ATPase p97
Procedure: FIG. 10A, Colony forming assay to assess the survival of HeLa cells transfected with the indicated siRNAs following a 24 hour treatment with the indicated doses of CPT. FIG. 10B, Immunoblots to confirm depletion efficacy in A. FIG. 10C, Analysis of anti-Strep-tag immunoprecipitates prepared from HEK293 cells expressing SPRTN-SSH, transfected with the indicated siRNA. FIG. 10D, Total DNA-protein crosslinks (DPCs) isolated by RADAR from HEK293 cells treated with the indicated siRNAs. DPCs were resolved by SDS-PAGE and visualised by silver staining. FIG. 10E, Quantification of FIG. 10D (error bars represent mean ±SD; n=2; **P<0.01; ns, not significant; Student's t-test). FIG. 10F, In vitro TOP1cc repair assay. TOP1ccs were purified by CsCl-gradient centrifugation from HEK293 cells, incubated with the indicated purified proteins (100 nM/reaction), slot-blotted onto a nitrocellulose membrane and probed with a […] -specific antibody.
To explore how TEX264 regulates SPRTN-dependent TOP1cc processing, SPRTN-SSH was immunoprecipitated from wild-type and TEX264-depleted HEK293 cell extracts. […] As p97 exists in hexameric complexes, it can bind multiple cofactors at a time (Buchberger et al., 2015; Hänzelmann et al., 2011). […]

T4 sequence (P55072 2-806 limits assumed): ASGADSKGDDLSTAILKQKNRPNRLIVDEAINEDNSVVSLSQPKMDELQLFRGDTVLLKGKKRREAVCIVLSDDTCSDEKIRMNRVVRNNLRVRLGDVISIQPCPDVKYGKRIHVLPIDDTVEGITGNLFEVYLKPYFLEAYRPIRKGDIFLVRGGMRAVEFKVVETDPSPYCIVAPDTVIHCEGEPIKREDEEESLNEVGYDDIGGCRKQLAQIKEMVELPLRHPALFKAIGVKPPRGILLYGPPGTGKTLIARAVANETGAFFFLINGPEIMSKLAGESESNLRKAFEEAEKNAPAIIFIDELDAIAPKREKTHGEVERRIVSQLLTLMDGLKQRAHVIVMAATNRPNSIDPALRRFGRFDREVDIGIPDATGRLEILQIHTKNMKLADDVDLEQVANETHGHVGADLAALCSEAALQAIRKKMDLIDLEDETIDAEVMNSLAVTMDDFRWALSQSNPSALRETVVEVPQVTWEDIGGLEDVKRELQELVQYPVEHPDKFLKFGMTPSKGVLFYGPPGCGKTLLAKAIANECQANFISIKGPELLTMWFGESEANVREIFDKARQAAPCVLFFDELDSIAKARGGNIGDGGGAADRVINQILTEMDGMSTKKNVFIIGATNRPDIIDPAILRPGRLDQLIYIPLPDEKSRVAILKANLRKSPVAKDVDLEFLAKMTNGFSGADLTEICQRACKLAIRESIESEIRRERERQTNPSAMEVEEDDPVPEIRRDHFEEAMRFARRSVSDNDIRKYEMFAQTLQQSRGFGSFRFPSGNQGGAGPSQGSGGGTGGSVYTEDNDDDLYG

COc1ccc(C[C@H](N)C(=O)N[C@H]2[C@@H](O)[C@H](n3cnc4c(N(C)C)ncnc43)O[C@@H]2CO)cc1 [puromycin]
puromycin dose required to kill wild-type cells (HeLa cells): 0.6 µg/mL
puromycin dose required to kill wild-type cells (U2OS cells): 1 µg/mL
puromycin dose required to kill wild-type cells (HEK293 cells): 1.25 µg/mL

O=c1[nH]cc(F)c(=O)[nH]1 [FU, fluorouracil]
patient response rates [1]: 10-15%

CC[C@@]1(O)C(=O)OCc2c1cc1n(c2=O)Cc2cc3ccccc3nc2-1 [CPT, Camptothecin]
SUMOylated TOP1, particularly SUMO1 (SUMOylated TOP1): moderate increases
TOP1cc accumulation (TOP1cc): substantial TOP1cc accumulation
co-immunoprecipitation of TOP1 with p97 or TEX264 ([2]; 1 μM CPT): did not co-immunoprecipitate
interaction between TEX264 and TOP1 ([2]; CPT 25 nM for 1 hour): increased markedly

B1: SPRTN-SSH expressed in HEK293 cells (enzyme)
chain: MDDDLMLALRLQEEWNLQEAERDHAQESLSLVDASWELVDPTPDLQALFVQFNDQFFWGQLEAVEVKWSVRMTLCAGICSYEGKGGMCSIRLSEPLLKLRPRKDLVETLLHEMIHAYLFVTNNDKDREGHGPEFCKHMHRINSLTGANITVYHTFHDEVDEYRRHWWRCNGPCQHRPPYYGYVKRATNREPSAHDYWWAEHQKTCGGTYIKIKEPENYSKKGKGKAKLGKEPVLAAENKDKPNRGEAQLVIPFSGKGYVLGETSNLPSPGKLITSHAINKTQDLLNQNHSANAVRPNSKIKVKFEQNGSSKNSHLVSPAVSNSHQNVLSNYFPRVSFANQKAFRGVNGSPRISVTVGNIPKNSVSSSSQRRVSSSKISLRNSSKVTESASVMPSQDVSGSEDTFPNKRPRLEDKTVFDNFFIKKEQIKSSGNDPKYSTTTAQNSSSSSSQSKMVNCPVCQNEVLESQINEHLDWCLEGDSIKVKSEESL
notes: also called SPRTN-wt-cSSH; not shown: C-terminal SSH tag (pulled down by anti-Strep-tag)
in vitro TOP1cc repair assay (slot blot with TOP1cc-specific antibody), SPRTN alone [3]: SPRTN alone could process only a small proportion of TOP1ccs
in vitro TOP1cc repair assay (slot blot with TOP1cc-specific antibody), TOP1ccs pre-incubated with p97 and TEX264 [3]: this activity was enhanced when TOP1ccs were pre-incubated with p97 and TEX264 prior to the addition of SPRTN
binding result [4]: binds
